Reference: patent US20190269614A1, “CHEWABLE TABLET CONTAINING VITAMIN C SODIUM AND PREPARATION METHOD THEREOF” (GUANGXI SANPOTEL HEALTH INDUSTRY CO. LTD, priority 2016, published 2019)

Test: Lubricant trial: tabletting of vitamin C sodium chewable tablets with different lubricants
Assay type: physicochemical
Conditions: for Tabletting condition: granules with the named lubricant; for Friability / Hardness: tablets with the named lubricant
From the text: During tabletting, in order to increase granule fluidity, and ensure good filling and even distribution of tablet density, a certain amount of lubricant needs to be added to solve the problems of poor granule fluidity and sticking during tabletting. In the experiment of the present application, tabletting conditions when magnesium stearate, micro-powder silica gel, talcum powder, sodium dodecyl sulfate and mannitol were used as the lubricant were compared, and results are shown in Table 3.
From the test results in Table 3, it can be seen that when magnesium stearate, sodium dodecyl sulfate and mannitol are used, fluidity is good and sticking during tabletting is avoided, and prepared tablets have appropriate hardness and smooth and beautiful surfaces; when micro-powder silica gel is added, fluidity is good and sticking during tabletting is avoided, but the hardness of prepared tablets is low; and when talcum powder is added, fluidity is poor and sticking occurs during tabletting, and prepared tablets have large hardness. Therefore, magnesium stearate, sodium dodecyl sulfate and mannitol are selected as the lubricant in the present application.

Row | Compound | Tabletting condition | Friability | Hardness
1 | CCCCCCCCCCCCOS(=O)(=O)[O-].[Na+] [sodium dodecyl sulfate] | non-sticking | 0.42% | 59 N
2 | OC[C@@H](O)[C@@H](O)[C@H](O)[C@H](O)CO [mannitol] | non-sticking | 0.39% | 54 N
3 | magnesium stearate | non-sticking | 0.34% | 49 N
